Counter-ions that a name gives are not always drawn.
Assays:
[1] = test system: NCI-H292 lung cancer cells; test: FDA drug screening, complete media vs cholesterol-free media without statin (TABLE 1); format: cell-based, human
[2] = test system: NCI-H292 lung cancer cells; test: FDA drug screening, complete media vs cholesterol-free media with simvastatin (TABLE 2); format: cell-based, human; conditions: for Cholesterol-free media + simvastatin (0.04 μM) / Complete Media: NCI-H292 cells
[3] = Complete minus Cholesterol-free; greater than 0 enhanced anti-cancer activity, about 0 neutral, below 0 antagonist
[4] = NCI-H292 cells, FDA drug library screen, cholesterol-free media without statin
[5] = NCI-H292 cells, FDA drug library screen, complete media
[6] = cholesterol-free media with simvastatin 0.04 μM, FDA drug library screen (TABLE 2)
[7] = complete media, FDA drug library screen (TABLE 2)
[8] = complete media minus cholesterol-free media + simvastatin (0.04 μM), >0 enhanced anti-cancer activity, about 0 neutral, <0 antagonist
[9] = NCI-H292 cells, cholesterol-free media without statin
[10] = cholesterol-free media with simvastatin 0.04 μM, cell growth value in FDA drug screen
[11] = complete media, cell growth value in FDA drug screen
[12] = complete media minus cholesterol-free media + simvastatin, >0 enhanced anti-cancer activity, about 0 neutral, <0 antagonist
[13] = NCI-H292 cells, cholesterol-free media without statin, FDA drug library screen
[14] = NCI-H292 cells, complete media, FDA drug library screen
[15] = complete vs cholesterol-free media; >0 enhanced anti-cancer activity, about 0 neutral, <0 antagonist
[16] = FDA drug library screen, cholesterol-free media with simvastatin 0.04 μM
[17] = FDA drug library screen, complete media
[18] = complete media vs cholesterol-free media + simvastatin (0.04 μM), >0 enhanced anti-cancer activity, about 0 neutral, <0 antagonist
[19] = Complete minus Cholesterol-free; >0 enhanced anti-cancer activity, about 0 neutral, <0 antagonist
[20] = drug in cholesterol-free media with simvastatin 0.04 μM
[21] = FDA library drug in cholesterol-free media with simvastatin 0.04 μM
[22] = FDA library drug in complete media

Compound: COc1ccc(-c2nc3ccc(C4=NNC(=O)CC4C)cc3[nH]2)cc1 (centres unmarked) [Pimobendan]
- Difference [1, 3]: −0.11
- Cholesterol-free [1, 4]: 1.104
- Complete [1, 5]: 0.9932
- Cholesterol-free media + simvastatin (0.04 μM) [2, 6]: 1.535
- Complete Media [2, 7]: 1.535
- Difference [2, 8]: 0.00

Compound: COC(=O)[C@H]1[C@H]2C[C@H]3c4[nH]c5ccccc5c4CCN3C[C@H]2CC[C@@H]1O [Rauwolscine (hydrochloride)]
- Cholesterol-free [1, 9]: 1.377
- Complete ([1]; NCI-H292 cells, complete media): 0.9629
- Difference ([1]; complete vs cholesterol-free media; greater than 0 enhanced anti-cancer activity, about 0 neutral, below 0 antagonists): −0.41
- Cholesterol-free media + simvastatin (0.04 μM) [2, 10]: 0.7455
- Complete Media [2, 11]: 0.837
- Difference [2, 12]: 0.09

Compound: CCN(CC)c1ccc(C(=C2C=CC(=[N+](CC)CC)C=C2)c2cc(S(=O)(=O)[O-])ccc2S(=O)(=O)[O-])cc1.[Na+] [Isosulfan blue]
- Difference ([1]; Complete minus Cholesterol-free; […]): −0.07
- Cholesterol-free [1, 13]: 1.156
- Complete [1, 14]: 1.087
- Cholesterol-free media + simvastatin (0.04 μM) ([2]; cholesterol-free media with simvastatin 0.04 μM, […]): 1.148
- Complete Media ([2]; complete media, […]): 1.247
- Difference ([2]; complete media minus cholesterol-free media + simvastatin, […]): 0.10

Compound: CCCCC1=NC2(CCCC2)C(=O)N1Cc1ccc(-c2ccccc2-c2nnn[nH]2)cc1 [Irbesartan]
- Difference [1, 3]: −0.08
- Cholesterol-free [1, 4]: 0.8711
- Complete [1, 5]: 0.7887
- Cholesterol-free media + simvastatin (0.04 μM) [2, 10]: 0.9096
- Complete Media [2, 11]: 0.9697
- Difference [2, 12]: 0.06

Compound: CCOC(=O)n1ccn(C)c1=S [Carbimazole]
- Cholesterol-free [1, 13]: 1.183
- Complete [1, 14]: 1.469
- Difference [1, 15]: 0.29
- Cholesterol-free media + simvastatin (0.04 μM) [2, 10]: 1.468
- Complete Media [2, 11]: 1.519
- Difference [2, 12]: 0.05

Compound: CCCS(=O)(=O)Nc1ccc(F)c(C(=O)c2c[nH]c3ncc(-c4ccc(Cl)cc4)cc23)c1F [Vemurafenib]
- Cholesterol-free [1, 13]: 0.6442
- Complete [1, 14]: 1.257
- Difference [1, 15]: 0.61
- Cholesterol-free media + simvastatin (0.04 μM) [2, 16]: 0.8006
- Complete Media [2, 17]: 0.9559
- Difference [2, 12]: 0.16

Compound: NC(=O)c1cccnc1 [Nicotinamide]
- Difference [1, 3]: −0.17
- Cholesterol-free [1, 4]: 0.8882
- Complete [1, 5]: 0.716
- Cholesterol-free media + simvastatin (0.04 μM) [2, 16]: 0.9853
- Complete Media [2, 17]: 0.9029
- Difference [2, 18]: −0.08

Compound: O=C(NC1CCN(CCCCC2(C(=O)NCC(F)(F)F)c3ccccc3-c3ccccc32)CC1)c1ccccc1-c1ccc(C(F)(F)F)cc1 [Lomitapide]
- Difference [1, 19]: −0.25
- Cholesterol-free [1, 9]: 0.9551
- Complete ([1]; NCI-H292 cells, complete media): 0.7097
- Cholesterol-free media + simvastatin (0.04 μM) [2, 20]: 1.325
- Complete Media ([2]; drug in complete media): 1.07
- Difference [2, 18]: −0.25

Compound: CC(C)=CCC/C(C)=C/CC/C(C)=C/C=C/C(C)=C/C(=O)O [Peretinoin]
- Difference [1, 19]: −0.19
- Cholesterol-free [1, 9]: 1.271
- Complete ([1]; NCI-H292 cells, complete media): 1.084
- Cholesterol-free media + simvastatin (0.04 μM) [2, 21]: 1.273
- Complete Media [2, 22]: 0.971
- Difference [2, 18]: −0.30

Compound: C=CC(=O)Nc1cccc(Oc2nc(Nc3ccc(N4CCN(C)CC4)cc3)nc3ccsc23)c1 [Olmutinib]
- Cholesterol-free [1, 13]: 0.5571
- Complete [1, 14]: 0.798
- Difference [1, 15]: 0.24
- Cholesterol-free media + simvastatin (0.04 μM) [2, 16]: 0.5571
- Complete Media [2, 17]: 0.4482
- Difference [2, 18]: −0.11

Compound: CCCCCOC(=O)Nc1nc(=O)n([C@@H]2O[C@H](C)[C@@H](O)[C@H]2O)cc1F [Capecitabine]
- Difference [1, 19]: −0.20
- Cholesterol-free [1, 9]: 1.138
- Complete ([1]; NCI-H292 cells, complete media): 0.9364
- Cholesterol-free media + simvastatin (0.04 μM) [2, 21]: 1.236
- Complete Media [2, 22]: 0.648
- Difference [2, 18]: −0.59

Compound: Fluvoxamine (maleate)
- Difference [1, 3]: −0.11
- Cholesterol-free [1, 4]: 1.142
- Cholesterol-free media + simvastatin (0.04 μM) [2, 6]: 0.9929
- Complete Media [2, 7]: 0.9426
- Difference [2, 8]: −0.05

Compound: COc1c(C)c2c(c(O)c1C/C=C(\C)CCC(=O)O)C(=O)OC2 [Mycophenolic acid]
- Difference [1, 19]: −0.06
- Cholesterol-free [1, 13]: 0.346
- Complete [1, 14]: 0.2837
- Cholesterol-free media + simvastatin (0.04 μM) [2, 20]: 0.743
- Complete Media ([2]; drug in complete media): 0.5199
- Difference [2, 18]: −0.22

Compound: COC(=O)N[C@H](C(=O)N1CC2(CC2)C[C@H]1c1nc(-c2ccc3c(c2)C(F)(F)c2cc(-c4ccc5[nH]c([C@@H]6[C@H]7CC[C@H](C7)N6C(=O)[C@@H](NC(=O)OC)C(C)C)nc5c4)ccc2-3)c[nH]1)C(C)C [Ledipasvir (acetone)]
- Difference [1, 3]: −0.13
- Cholesterol-free [1, 4]: 0.5672
- Complete [1, 5]: 0.4332
- Cholesterol-free media + simvastatin (0.04 μM) [2, 21]: 1.383
- Complete Media [2, 22]: 0.9707
- Difference [2, 18]: −0.41

Source: patent publication US20250144067A1, “PERSONALIZED STARVATION THERAPY FOR CANCER” (Faeth Therapeutics, Inc., priority 2021, published 2025)
